Source: patent US9745276B2, “Crystal modifications of elobixibat” (Elobix AB, priority 2013, dated 2017)

Key:
Format in all cases: physicochemical
[1] = Thermal gravimetric analysis (TGA) of water/solvent content; conditions: heated at 10° C./min from 25° C., dry nitrogen purge
Experimental: Approximately 1-5 mg of sample was added to a tared Platinum cup which was then placed in the weighting position of a Perkin-Elmer Pyris 1 TGA analyzer. The furnace was raised and the starting weight of the sample was recorded. The heating program was then started. The sample was heated at a rate of 10° C./min, starting at 25° C. and ending at 90-300° C., depending on where a constant temperature could be attained. The sample was purged with dry nitrogen gas during analysis.
A sample of crystal modification IV was analyzed with XRPD and the water content was checked with TGA. The weight loss for crystal modification IV was initially slow, but accelerated at about 50° C. and was finalized at about 80° C. A weight loss of 2.7% w/w was observed.
A sample of crystal modification I was analyzed with XRPD and the water content was checked with TGA. […] A weight loss of 0.99% w/w was observed.
The solvent content of a sample of EtOH-1 was analyzed with TGA.

[2] = Relative thermodynamic stability of crystal modifications; conditions: normal conditions (21° C., 10-30% relative humidity)
[3] = Dynamic Vapor Sorption (DVS) analysis; conditions: after drying with dry nitrogen, two sorption-desorption cycles, 0 to 10% RH
Experimental: Approximately 15-20 mg of the sample was weighed into a quartz receptacle, which was then released of static electricity by exposing it to a radioactive source. The quartz receptacle was then positioned in a Surface Measurements System Ltd DVS Advantage instrument. The sample was dried with dry nitrogen gas until a dm/dt below 0.002% per minute was reached. The instrument was running in dm/dt-mode using a dm/dt window of 5 minutes, a minimum stage time of 10 minutes and a maximum stage time of 360 minutes. The sample was then subjected to two consecutive sorption-desorption cycles, using d/m/dt-mode parameters above, and each cycle running from 0-95-0% relative humidity (% RH). One cycle consisted of 20 steps, those between 0-90% RH were taken in 10% RH each.
A sample of crystal modification IV was weighed into the quartz scale pan of a Scientific Instruments Dynamic Vapor Sorption instrument. The sample was released of static electricity by moving a radioactive isotope over it and was then put into the instrument. The sample was dried by flushing dry nitrogen gas until the weight was constant and then two consecutive sorption-desorption cycles were run. Crystal modification IV absorbs approximately 2.45% water between 0 and 10% RH, and an additional 0.36 to 0.37% water between 10 and 60% RH. […]

[4] = Storage stability of the crystal modification (XRPD)
Experimental: Dry samples were lightly ground in an agate mortar, if needed, and were then smeared out on a sample holder. Slurry samples were added to the sample holder as wet and were analyzed both wet and dry. XRPD data were collected on a cut Silicon Zero Background Holder (ZBH) or on a Porous Alumina Filter Sample Holder, using a PANalytical X'Pert Pro diffractometer, equipped with an X'celerator or a PIXcel detector. The sample was spun during analysis and Cu-radiation was used. The following experimental settings were used:
A batch of crystal modification IV was stored in a closed glass vial and kept at 20° C. and between 20 and 60% RH for 17 months.

Row | Structure (SMILES) | TGA weight loss [1] | thermodynamic stability compared with crystal modification I and other crystal modifications of elobixibat [2] | water absorbed between 0 and 10% RH [3] | crystalline form by XRPD after storage ([4]; closed glass vial, 20° C., between 20 and 60% RH, 17 months) | time of storage for which found stable ([4]; such as under ambient, open conditions) [months]
1 | CCCCC1(CCCC)CN(c2ccccc2)c2cc(SC)c(OCC(=O)N[C@@H](C(=O)NCC(=O)O)c3ccccc3)cc2S(=O)(=O)C1 [EtOH-1, N-{(2R)-2-[({[3,3-dibutyl-7-(methyl-thio)-1,1-dioxido-5-phenyl-2,3,4,5-tetrahydro-1,5-benzothiazepin-8-yl]oxy}acetyl)amino]-2-phenylethanolyl}glycine] | approximately 6 % w/w |  |  |  | 
2 | CCCCC1(CCCC)CN(c2ccccc2)c2cc(SC)c(OCC(=O)N[C@@H](C(=O)NCC(=O)O)c3ccccc3)cc2S(=O)(=O)C1 [crystal modification IV, N-{(2R)-2-[({[3,3-dibutyl-7-(methyl-thio)-1,1-dioxido-5-phenyl-2,3,4,5-tetrahydro-1,5-benzothiazepin-8-yl]oxy}acetyl)amino]-2-phenylethanolyl}glycine] | 2.7 % w/w | more thermodynamically stable | approximately 2.45% | unchanged | ≥ 17
3 | CCCCC1(CCCC)CN(c2ccccc2)c2cc(SC)c(OCC(=O)N[C@@H](C(=O)NCC(=O)O)c3ccccc3)cc2S(=O)(=O)C1 [crystal modification I, N-{(2R)-2-[({[3,3-dibutyl-7-(methyl-thio)-1,1-dioxido-5-phenyl-2,3,4,5-tetrahydro-1,5-benzothiazepin-8-yl]oxy}acetyl)amino]-2-phenylethanolyl}glycine] | 0.99 % w/w |  | approximately 0.66% |  | 
